pIC50: −log10 of the molar value.

T1 sequence (P01854 104-428 isoform P01854-1 C105A/N146Q/N252Q): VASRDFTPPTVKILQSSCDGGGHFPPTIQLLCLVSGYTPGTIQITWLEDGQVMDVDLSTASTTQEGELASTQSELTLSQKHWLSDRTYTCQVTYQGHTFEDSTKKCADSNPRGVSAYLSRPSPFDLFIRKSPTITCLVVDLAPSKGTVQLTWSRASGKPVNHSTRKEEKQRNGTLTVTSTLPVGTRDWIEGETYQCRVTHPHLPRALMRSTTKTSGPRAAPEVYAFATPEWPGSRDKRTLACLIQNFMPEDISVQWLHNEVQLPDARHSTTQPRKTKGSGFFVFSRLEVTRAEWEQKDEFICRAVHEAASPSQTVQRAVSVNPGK

The assay addresses T1, IgE-Tb / soluble IgE receptor FcεRIα (Y131A mutation) (Homo sapiens, UniProt P01854, C105A/N146Q/N252Q).
T1 construct: 86 nmoles of IgE-Fc(N265Q, N371Q) (Young et al., 1995)
Description: in vitro FRET assay: binding of IgE-Tb to receptor FcεRIα-Y131A-AF488 and inhibition by compounds. Conditions: 5 nM IgE-Tb, 25 nM FcεRIα-Y131A-AF488, 2 hours at room temperature; read-out: FRET IC50 range. As to the method: 86 nmoles of IgE-Fc(N265Q, N371Q) (Young et al., 1995) at 172 μM in 100 mM NaHCO3, pH 9.5 was added to 1 mg of LanthaScreen™ Amine Reactive Tb Chelate (ThermoFisher catalogue number PV3583) and incubated for 16 hours at 20° C. The material was then buffer exchanged into Phosphate Buffered Saline (being, 137 mM NaCl, 2.7 mM KCl, 10 mM Na2HPO4, 1.8 mM K2HPO4, pH 7.4) and the material quantified and the degree of Tb conjugation determined by measuring the absorption at 280 nm and 343 nm.
The integrity of the conjugated material was determined by analytical size exclusion chromatography on a S200 HR 10×300 column (GE Healthcare). Typical conjugation ratios were 4:1 Tb:IgE-Fc.
400 nmoles FcεR1α(Y131A mutant) (Cook et al., 1997) at 400 μM in 100 mM NaOAc pH 5.5 was reacted with 1 mM final concentration sodium periodate (in 100 mM NaOAc, pH 5.5) for 60 minutes at 22° C. Oxidation was quenched with the addition of 40 μL of ethanediol and incubation for 60 minutes at 22° C. The protein was buffer exchanged in to conjugation buffer (50 mM NaHCO3, 150 mM NaCl, pH 9.5) and concentrated to 750 μM.
175 nmoles of protein was added to 1 mg of Alexa Fluor™ 488 hydrazide (Invitrogen) and incubated for 16 hours at 22° C. Sodium cyanoborohydride (at 100 mM in conjugation buffer) was added to a final concentration of 1 mM and incubated for 60 minutes on ice. The protein was buffer exchanged into Phosphate Buffered Saline (being, 137 mM NaCl, 2.7 mM KCl, 10 mM Na2HPO4, 1.8 mM K2HPO4, pH 7.4) and the material quantified and the degree of Alexa Fluor™ 488 conjugation determined by measuring the absorption at 280 nm and 495 nm.
The integrity of the conjugated material was determined by analytical size exclusion chromatography on a S200 HR 10×300 column (GE Healthcare). Typical conjugation ratios were 2:1 Alexa Fluor™488: sFcεR1α
The aim was to measure binding of IgE-Tb to receptor, and the inhibition thereof by compounds, using an in vitro Fluorescence Resonance Energy Transfer (FRET) Assay.
FRET reagents used were IgE labelled with Terbium (FRET donor), and soluble IgE receptor FcεRIα with a Y131A mutation, labelled with Alexa Fluor™ 488 (FRET acceptor). Unlabelled FcεRIα was also used to generate a background control. The assay buffer consisted of 20 mM Tris pH7.2, 150 mM NaCl, and 0.002% Tween, 1% DMSO.
The assay was conducted according to the following: Each assay reaction was conducted in a volume of 25 μl in a 384-well half-volume plate. 10 point compound serial dilutions (3-fold) were generated in DMSO at a concentration of ×50 that of the final assay concentration (FAC). Compound solutions were then prepared by IgE-Tb diluting 10-fold in assay buffer. For the assay, 5 μl of diluted compound was added to 10 μl of, followed by addition of 10 μl FcεRIα-Y131A-AF488. FRET reagents FACs were 5 nM IgE-Tb, 25 nM FcεRIα-Y131A-AF488. Usually the top FAC of compound in the assay was 10 μM. The final DMSO concentration was 2%. The minimum signal (MIN) was measured by adding 5 μl unlabelled FcεRIα at 1 μM (FAC=200 nM) to the FRET reagents. The maximum FRET signal (MAX) was measured in wells containing FRET reagents but no compound.
The assay was incubated for 2 hours at room temperature, protected from light and evaporation, and with gentle agitation.
Measurement of FRET for each well was carried out by exciting at 330 nm and measuring emission at 495/520 nm using an Envision plate reader (Perkin Elmer). FRET ratio was calculated as follows: Emission at 520/Emission at 495×1000.
The FRET ratio was used for the data analysis.
Z′ was calculated as follows (σ=standard deviation and μ=mean): 1−((3×σ^MAX)+(3×σMIN))/(μMAX−μMIN)
Z′ above 0.5 was considered a good assay.
Background signal (MIN) was subtracted from all wells. Using the background subtracted values, the percent inhibition by compound in each test-well was calculated as follows: 100−Test-well FRET ratio/MAX FRET ratio×100.
Percent inhibition was plotted against compound concentration. […]
Broadly, the pIC50 is the IC50 on a negative log10 scale, so that one unit is a factor of ten. Turning to `CC(C)CNS(=O)(=O)c1cc2c(c3cnc(C4CC4)cc13)CCCC2` [Example 1, 3-cyclopropyl-N-(2-methylpropyl)-7,8,9,10-tetrahydrobenzo[h]isoquinoline-5-sulfonamide], the pIC50 was 6.00 to 7.00.

Regarding `CCNC(=O)NC1CCCc2c1cc(S(=O)(=O)NCC(C)C)c1cc(C3CC3)ncc21` (stereo not drawn) [Example 2, 1-[3-cyclopropyl-5-(2-methylpropylsulfamoyl)-7,8,9,10-tetrahydrobenzo[h]isoquinolin-7-yl]-3-ethylurea], the negative-log IC50 (pIC50) was 7.00 to 7.30.

With `CCNC(=O)NC1CCCc2cc(S(=O)(=O)NCC(C)C)c3cc(C4CC4)ncc3c21` (stereo not drawn) [Example 3, 1-[3-cyclopropyl-5-(2-methylpropylsulfamoyl)-7,8,9,10-tetrahydrobenzo[h]isoquinolin-10-yl]-3-ethylurea], the pIC50 is 6.00 to 7.00.

Regarding `CC(C)CNS(=O)(=O)c1cc2c(c3cnc(C4CC4)cc13)CCCC2NS(C)(=O)=O` (stereo not drawn) [Example 4, 3-cyclopropyl-7-(methanesulfonamido)-N-(2-methylpropyl)-7,8,9,10-tetrahydrobenzo[h]isoquinoline-5-sulfonamide], the pIC50 was 6.00 to 7.00.

As to `CC(C)CNS(=O)(=O)c1cc2c(c3cnc(C4CC4)cc13)C(NS(C)(=O)=O)CCC2` (stereo not drawn) [Example 5, 3-cyclopropyl-10-(methanesulfonamido)-N-(2-methylpropyl)-7,8,9,10-tetrahydrobenzol[h]isoquinoline-5-sulfonamide], the negative-log IC50 (pIC50) was 5.30 to 6.00.

`Cn1nnc(-c2ccc(NC3CCCc4c3cc(S(=O)(=O)NCC(C)(C)F)c3cc(C5CC5)ncc43)cn2)n1` (stereo not drawn) [Example 6]: the pIC50 was 7.30 to 8.00.

Consider `Cc1cc(Nc2nncn2C2CCCc3c2cc(S(=O)(=O)NCC(C)(C)F)c2cc(C4CC4)ncc32)n(C)n1` (stereo not drawn) [Example 7, 3-cyclopropyl-7-[3-[(2,5-dimethylpyrazol-3-yl)amino]-1,2,4-triazol-4-yl]-N-(2-fluoro-2-methylpropyl)-7,8,9,10-tetrahydrobenzo[h]isoquinoline-5-sulfonamide], for which the pIC50 is 6.00 to 7.00.

Take `Cn1nnc(-c2ccc(NC3CCCc4cc(S(=O)(=O)NCC(C)(C)F)c5cc(C6CC6)ncc5c43)cn2)n1` (stereo not drawn) [Example 8, 3-cyclopropyl-N-(2-fluoro-2-methylpropyl)-10-[[6-(2-methyltetrazol-5-yl)pyridin-3-yl]amino]-7,8,9,10-tetrahydrobenzo[h]isoquinoline-5-sulfonamide]: the pIC50 is 6.00 to 7.00.

As for `CCOC(=O)c1ncn(C2CCCc3c2cc(S(=O)(=O)NCC(C)(C)F)c2cc(C4CC4)ncc32)c1N` (stereo not drawn) [Example 9, ethyl 5-amino-1-[3-cyclopropyl-5-[(2-fluoro-2-methylpropyl)sulfamoyl]-7,8,9,10-tetrahydrobenzo[h]isoquinolin-7-yl]imidazole-4-carboxylate], the pIC50 was 6.00 to 7.00.

With `Cc1noc(-c2cncc(NC3CCCc4c3cc(S(=O)(=O)NCC(C)(C)F)c3cc(C5CC5)ncc43)c2)n1` (stereo not drawn) [Example 10, 3-cyclopropyl-N-(2-fluoro-2-methylpropyl)-7-[[5-(3-methyl-1,2,4-oxadiazol-5-yl)pyridin-3-yl]amino]-7,8,9,10-tetrahydrobenzo[h]isoquinoline-5-sulfonamide], the pIC50 was 7.00 to 7.30.

Take `Cc1cc(NC(=O)NC2CCCc3c2cc(S(=O)(=O)NCC(C)(C)F)c2cc(C4CC4)ncc32)n(C)n1` (stereo not drawn) [Example 11, 1-[3-cyclopropyl-5-[(2-fluoro-2-methylpropyl)sulfamoyl]-7,8,9,10-tetrahydrobenzo[h]isoquinolin-7-yl]-3-(2,5-dimethylpyrazol-3-yl) urea]: the pIC50 is 6.00 to 7.00.

For `CCOC(=O)c1cn(C2CCCc3c2cc(S(=O)(=O)NCC(C)(C)F)c2cc(C4CC4)ncc32)cn1` (stereo not drawn) [Example 12, ethyl 1-[3-cyclopropyl-5[(2-fluoro-2-methylpropyl)sulfamoyl]-7,8,9,10-tetrahydrobenzo[h]isoquinolin-7-yl]imidazole-4-carboxylate], the pIC50 is 6.00 to 7.00.

(Values after patent US12662455B2, “Tetrahydrobenzo-quinoline sulfonamide derivatives useful as IgE modulators” (UCB Biopharma SRL, priority 2019, dated 2026).)
